From patent US8901317B2, “Tryptamine derivatives, their preparation and their use in gastropathy” (Council of Scientific & Industrial Research, priority 2010, dated 2014)

Assays:
[1] = Ferric reducing antioxidant power (FRAP) assay; details: for FRAP Value6 min (μM) M ± SD: 6 min; for FRAP Value6 min (μM) M ± SD / FRAP Value65 min (μM) M ± SD: compound at 10 μM relative to ferrous sulfate; for FRAP Value65 min (μM) M ± SD: 65 min
Protocol: The antioxidant property of different tryptamine derivatives were assessed and compared with the known antioxidants for potency. […] The FRAP assay is based on the measurement of the ability of the substance to reduce Fe^3+ to Fe^2+, greater the reducing ability greater the anti oxidant property. Antioxidants reduce Fe^3+-TPTZ in to blue colored Fe^2+-TPTZ complex, which results in an increase in the absorbance at 595 nm giving a FRAP value. […] Absorbance changes at different time intervals (FIG. 6) as well as at different concentrations (FIG. 7) at time 6 min in the presence of different compounds at 595 nm were measured. FRAP values at 6 min and 65 min were calculated from different tryptamine derivatives and some known antioxidant (Table 1). […] DPPH assay based on the DPPH free radicals scavenging power of the antioxidant molecules. Higher the scavenging power higher will be the antioxidant property.
The assay was performed in a 96-well microplate. FRAP reagent was prepared by mixing of 10 ml acetate buffer (200 mM, pH-3.6), 1 ml of 2,4,6-tris(2-pyridyl)-s-triazine (TPTZ) solution (10 mM in 40 mM HCl) and 1 ml of ferric chloride solution (20 mM) in distilled water. For 1 h the mixture was kept in a water bath at 37° C. In 96-well microplates, 25 μL of the compounds under investigation dissolved (in methanol, some compound dissolved in water) at different concentrations in the range 1-25 μM was placed in triplicate and freshly prepared FRAP solution (175 μL) was added to this sample. A micro plate reader monitored the absorbance at 595 nm at different time intervals for up to 150 min. The absorbance of a mixture 175 μL TRAP sol and 25 μL methanol or water was taken which was subtracted from the absorbance of the samples at each time interval to calculate the absorbance change (ΔA). The FRAP value at time interval t (FRAP valuet) was calculated according to the formula: FRAP valuet(M)=(ΔatFl/ΔatFe^2+)×10^−5 Where ΔatFl is the absorbance change after the time interval t (6 and 65 min) relative to the tested flavonoid at the concentration of 10 μM and ΔatFe^2+ is the absorbance change at the same time interval relative to ferrous sulfate at the same concentration (Pal, C; et al. Free Radic Biol Med, 49(2), 258-267, 2010, Firuzi, O; et al. Biochim. Biophys. Acta 1721:174-184; 2005).

rats = assay: Toxicity (death) after injection in rats; assay type: in vivo
[2] = literature (Shahrzad et al. 2001); cited from earlier work
[3] = DPPH free radical scavenging assay; details: compounds 100 μM; 517 nm (Table 2)
Protocol: The antioxidant property of different tryptamine derivatives were assessed and compared with the known antioxidants for potency. A range of different synthesized compounds and known anti oxidants, quercetin, ascorbic acid and gallic acid were analyzed by the FRAP assay. The FRAP assay is based on the measurement of the ability of the substance to reduce Fe^3+ to Fe^2+, greater the reducing ability greater the anti oxidant property. Antioxidants reduce Fe^3+-TPTZ in to blue colored Fe^2+-TPTZ complex, which results in an increase in the absorbance at 595 nm giving a FRAP value. […] Absorbance changes at different time intervals (FIG. 6) as well as at different concentrations (FIG. 7) at time 6 min in the presence of different compounds at 595 nm were measured. FRAP values at 6 min and 65 min were calculated from different tryptamine derivatives and some known antioxidant (Table 1). […] DPPH assay based on the DPPH free radicals scavenging power of the antioxidant molecules. Higher the scavenging power higher will be the antioxidant property. […] This assay was performed in presence of some known antioxidants such as ascorbic acid, quercetin and gallic acid.
2,2-Diphenyl-1-Picrylhydrazyl (DPPH) is a stable free radical that can accept hydrogen radical or an electron and become a stable diamagnetic molecule. The antioxidants can scavenge the DPPH by donating hydrogen as visualized by discoloration of the DPPH radical from purple to yellow (Pal, C; et al. Free Radic Biol Med, 49(2), 258-267; 2010, Ben Farhat, M.; et al. J. Agric. Food Chem. 57:10349-10356; 2009, Han, J; et al. Wei Sheng Yan Jiu 38:596-598; 2009). The assay system contained 1 mL of compounds under investigation dissolved (in methanol, some compound dissolved in water) at different concentrations in the range 10-100 μM solution and 4 ml of DPPH (0.15 mM) in methanol (80% in water v/v) and mixed well. It was allowed to stand for 30 min at 27° C. away from light. Ascorbic acid at the same concentration was taken as positive control. The absorbance of the solution was measured spectrophotometrically at 517 nm and from the decrease of absorption; the antioxidant activity of different tryptamine derivatives were determined.

CaCo2 colon cancer cells = details: literature (Shoeb et al. 2006); cited from earlier work

Structure (SMILES) | FRAP Value6 min (μM) M ± SD [1] [µM] | FRAP Value65 min (μM) M ± SD [1] [µM] | reducing ability (Fe^3+ to Fe^2+) / antioxidant property in words ([1]; compared to other tryptamine derivatives and known antioxidants) | death of rats after injection (rats; i.p. 25 mg kg^−1) | death of rats after injection (rats; i.p. 50 mg kg^−1) | bioavailability in plasma [2] | Absorbance change (ΔA) at 30 min [3] | death of rats after injection (rats; injected, dose not given) | in vitro cytotoxic activity (CaCo2 colon cancer cells)
NCCc1c[nH]c2ccc(O)cc12 [Serotonin, 5-hydroxytryptamine, reference compound] | 21.61 ± 3.65 | 35.48 ± 6.55 | very little antioxidant property | all the rats were found to be dead | all the rats were found to be dead | – | – | – | –
O=C(O)c1cc(O)c(O)c(O)c1 [Gallic acid, reference compound] | 33.90 ± 4.92 | 46.59 ± 8.41 | – | – | – | low | – | – | –
NCCc1c[nH]c2ccc(OC(=O)CCCC(=O)NCCc3c[nH]c4ccc(O)cc34)cc12 [Compound 6c, 3-(2-aminoethyl)-1H-indol-5-yl 5-(2-(5-hydroxy-1H-indol-3-yl)ethylamino)-5-oxopentanoate] | 17.51 ± 0.38 | 29.78 ± 3.87 | – | – | – | – | 0.19 ± 0.03 | all the rats were found dead within 20 mins | –
O=C(/C=C/c1ccc(O)cc1)NCCc1c[nH]c2ccc(O)cc12 [Compound 2b, (E)-N-(2-(5-hydroxy-1H-indol-3-yl)ethyl)-3-(4-hydroxyphenyl)acrylamide] | 3.09 ± 0.13 | 7.44 ± 1.47 | – | – | – | – | 0.12 ± 0.01 | – | shows in vitro cytotoxic activity
